Measured values published in ChEMBL document CHEMBL3414464, “Design, synthesis, and evaluation of NO-donor containing carbonic anhydrase inhibitors to lower intraocular pressure” (J Med Chem, 2015).
Values after ≈ are worked out from the molar mass of the structure shown.

Assays:
[1] = (§1) Drug level in iris ciliary body of pigmented male Dutch-belted rabbit assessed as compound formation treated with 2 x 25 uL topical dose of formulated (R)-3-(4-(Ethylamino)-1,1-dioxido-6-sulfamoyl-3,4-dihydro-2Hthieno[3,2-e][1,2]thiazin-2-yl)propyl nitrate in each eye and measured 4 hrs post dose by LC-MS/MS method; format: ADME, tissue-based, Oryctolagus cuniculus; conditions: in vivo, topical_or_ocular
[2] = as §1, with “aqueous humor” for “iris ciliary body”; format: ADME, tissue-based, Oryctolagus cuniculus; conditions: in vivo, topical_or_ocular
Oryctolagus cuniculus = assay: Reduction in intraocular pressure in pigmented male Dutch-belted rabbit assessed as intraocular pressure level at trough treated with 2% 2 x 25 uL topical dose of formulated compound in right eye and measured after 1 to 2 hrs by non-contact tonometry; format: functional
[3] = Drug level in aqueous humor of pigmented male Dutch-belted rabbit treated with 2 x 25 uL topical dose of formulated compound in each eye and measured 4 hrs post dose by LC-MS/MS method; format: ADME, tissue-based, Oryctolagus cuniculus; conditions: in vivo, topical_or_ocular
[4] = Drug level in iris ciliary body of pigmented male Dutch-belted rabbit treated with 2 x 25 uL topical dose of formulated compound in each eye and measured 4 hrs post dose by LC-MS/MS method; format: ADME, tissue-based, Oryctolagus cuniculus; conditions: in vivo, topical_or_ocular
[5] = (§2) Drug level in iris ciliary body of pigmented male Dutch-belted rabbit assessed as compound formation treated with 2 x 25 uL topical dose of formulated (4S,6S)-4-Ethylamino-6-(3-nitrooxy-propyl)-7,7-dioxo-4,5,6,7-tetrahydro-7lambda6-thieno[2,3-b]thiopyran-2-sulfonic acid amide in each eye and measured 4 hrs post dose by LC-MS/MS method; format: ADME, tissue-based, Oryctolagus cuniculus; conditions: in vivo, topical_or_ocular
[6] = as §2, with “aqueous humor” for “iris ciliary body”; format: ADME, tissue-based, Oryctolagus cuniculus; conditions: in vivo, topical_or_ocular
Cynomolgus monkey [7] = assay: Reduction in intraocular pressure unilaterally lasered ocular hypertensive cynomolgus monkey treated with 1% 2 x 25 uL topical dose of formulated compound in right eye and measured after 2 hrs by ocular hypertension primate tonometry; format: functional, Macaca fascicularis
Cynomolgus monkey [8] = assay: Reduction in intraocular pressure unilaterally lasered ocular hypertensive cynomolgus monkey treated with 2% 2 x 25 uL topical dose of formulated compound in right eye and measured after 2 hrs by ocular hypertension primate tonometry; format: functional, Macaca fascicularis

Description for physchem: Solubility of the compound

Drug uptake [3]	solubility (physchem) [µg/mL]	Drug uptake [4]	Compound	Activity (Oryctolagus cuniculus) [mmHg]	other results
			CCN[C@H]1CN(CCCO)S(=O)(=O)c2sc(S(N)(=O)=O)cc21		Drug metabolism [1]: metabolite_detected; Drug metabolism [2]: metabolite_detected
Active	11300 (≈ 27.3 mM)	Active	CCN[C@H]1C[C@H](CCCO[N+](=O)[O-])S(=O)(=O)c2sc(S(N)(=O)=O)cc21	5	
			CCN[C@H]1C[C@H](CCCO)S(=O)(=O)c2sc(S(N)(=O)=O)cc21		Drug metabolism [5]: metabolite_detected; Drug metabolism [6]: metabolite_detected
	500 (≈ 1.3 mM)		CCN[C@H]1CN(CCCOC)S(=O)(=O)c2sc(S(N)(=O)=O)cc21 [BRINZOLAMIDE]		Activity (Cynomolgus monkey [7]): 2 mmHg
Active	2200 (≈ 5.31 mM)	Active	CCN[C@H]1CN(CCCO[N+](=O)[O-])S(=O)(=O)c2sc(S(N)(=O)=O)cc21	5	Activity (Cynomolgus monkey [8]): 10.5 mmHg
